Results: patent US7968605B2, “Methods for treating inflammatory disease by administering aldehydes and derivatives thereof” (ALFAMA—Investigação e Desenvolvimento de Produtos …, priority 2002, dated 2011)

Legend:
[1] = CO release from aldehyde prodrug compounds in TBHP plus rpmi solution; conditions: for CO release / Rate of CO release: 1.5 ml rpmi + 0.5 ml TBHP, 37° C.
Method: (§1) At the appropriate time, 250 μl of the gas mixture was removed from the vial, injected in the gas chromatograph (Trace GC with a TCD detector from Thermo Finnigan, connected to a Chrom-card 32 bit software), and the amount of CO was measured according to previously calibrated conditions.
1.5 ml of rpmi and 0.5 ml of TBHP were added, and the vial was placed at 37° C. with orbital stirring. At the appropriate time, 250 μl of the gas mixture was analysed as described for Example 1.

[2] = CO release from aldehydes in different media (TBHP, H2O2, rpmi, pH 2), gas chromatograph; conditions: for CO release in rpmi: RPMI media with 10% fetal calf serum; for CO release in rpmi / CO release in TBHP solution / CO release in H2O2 solution / Media in which CO release was observed: 37° C.; for CO release in TBHP solution: TBHP solution in excess, aldehyde about 0.11-0.17 M; for Effect of radical trap 2,6-di-tert-butylphenol on CO release in acidic aqueous solution: acidic aqueous solution plus radical trap; for CO release in pH 2 (acidic aqueous) solution: aqueous solution pH 2-2.5, 37° C.; for CO release in H2O2 solution: hydrogen peroxide solution, 35% in water; for Media in which CO release was observed: tested in TBHP, H2O2, rpmi and pH 2 solutions
Method: In each experiment 2 ml of the appropriate solution, TBHP, H2O2, rpmi or pH 2 solution, was added and the vial placed at 37° C. with orbital stirring.
as §1

[3] = system: adjuvant arthritis; experiment: Anti-arthritic activity, adjuvant arthritis in Sprague-Dawley rats; type: in vivo; conditions: 100 mg/kg/day intraperitoneal for 20 days from day 10
Method: Adjuvant arthritis was induced in outbred Sprague-Dawley rats by intradermal injection into the subplantar area of the right hind paw of 0.1 ml of a 10 mg/ml suspension of Mycobacterium butyricum, killed and dried in Freund's incomplete adjuvant. Treatment was initiated 10 days after disease induction at the time of disease onset. Groups of 7 rats received intraperitoneal injections of compound 1 and compound 2 in 1 ml PBS, each at a dose of 100 mg/kg/day for 20 days. A control group of 7 rats received no treatment. Progression of arthritis was monitored by daily measurements of right and left paw volumes by a water displacement method using a plethysmometer, by daily measurements of the ankle circumference with a flexible strip, and by determination of the arthritic index based on levels of erythema and oedema of the entire paws and digits, number of joints involved, spondylosis, lesions on the tail, movement capacity and infections. The maximum possible score was 11.

[4] = system: adjuvant arthritis; experiment: Anti-arthritic activity, adjuvant arthritis in Lewis rats; type: in vivo; conditions: for Arthritic score / Increase in paw volume compared to vehicle or untreated rats: 100 and 25 mg/kg daily
[5] = listed as 4-ethyl-4-formyl-hexanenitrile
[6] = 25 mg/kg daily injections for 30 days from day 10
[7] = 100 mg/kg daily injections for 30 days from day 10

CC(C)(C)C1NC(C(=O)O)CCS1 (racemic) [compound 12, 2-tert-butyl-[1,3]thiazinane-4-carboxylic acid]
CO release [1]: lower than its 5-membered ring analogue
CO release after 6 hours ([1]; TBHP plus rpmi): 7.7%
CO release after 25 hours ([1]; TBHP plus rpmi): 15.8%
CO release after one day ([1]; TBHP plus rpmi): about 16%

COC(=O)C1CSC(C(C)(C)C)N1 (racemic) [compound 10]
CO release [1]: released CO
Rate of CO release [1]: very slow
CO release after 6 hours ([1]; TBHP plus rpmi): 0.3%
CO release after 25 hours ([1]; TBHP plus rpmi): 10.3%
CO release after one day ([1]; TBHP plus rpmi): about 10%

CCC(C=O)(CC)CCC#N [compound 3, 4-ethyl-4-formyl-hexanenitrile]
CO release in rpmi [2]: decarbonylation in rpmi observed
CO release in rpmi [2, 5]: even less
CO release in TBHP solution [2]: released a very high amount of CO
Effect of radical trap 2,6-di-tert-butylphenol on CO release in acidic aqueous solution [2]: inhibited the decarbonylation process
CO release in pH 2 (acidic aqueous) solution [2]: decarbonylated significantly
CO release in pH 2 (acidic aqueous) solution [2, 5]: less
CO release in H2O2 solution [2]: No CO release was observed

CC(C)(C=O)CO [compound 4, 3-hydroxy-2,2-dimethylpropanal]
Time course of CO release in TBHP solution ([2]; TBHP solution, 0.12 M): initially the CO release was small, but within one day, it reached high levels
Media in which CO release was observed [2]: released CO only in TBHP solution

CC(C)(C)C1Nc2ccccc2CO1 (stereo not shown)
CO release [1]: No hydrolysis → No CO

CC(C)(C)C=NNC(=O)c1ccccc1
CO release [1]: No hydrolysis → No CO

CC(C)(C)C1NC(C(=O)O)CS1 (racemic) [compound 9, 2-tert-butylthiazolidine-4-carboxylic acid]
CO release [1]: released CO
Rate of CO release [1]: fast within the first 6 hours
CO release after 5 hours ([1]; TBHP plus rpmi, 5 hours): 17%
CO release after 6 hours ([1]; TBHP plus rpmi): around 16%
CO release after 23 hours ([1]; TBHP plus rpmi, 23 hours): 21%
CO release after one day ([1]; TBHP plus rpmi): 20%

COC(=O)C1COC(C(C)(C)C)N1 (stereo not shown)
CO release after 6 hours ([1]; TBHP plus rpmi): 0%
CO release after 24 hours ([1]; TBHP plus rpmi): 4.2%

CC(C)(C)/C=N/NC(=O)Nc1ccccc1
CO release [1]: No hydrolysis → No CO

CC(C)(C)C=Nc1ccc(C(=O)O)c(O)c1
CO release [1]: Stable, but instaneous hydro- lysis was observed when dissolved in water

CC1C(c2ccccc2)OC(C(C)(C)C)N1C (stereo not shown)
CO release [1]: No hydrolysis → No CO

C=CCC(C)(C)C=O [compound 2, 2,2-dimethyl-4-pentenal]
Body weight after disease onset [3]: No loss of body weight was observed
Paw circumference (right and left) [3]: prevented the increase
Paw volume (right and left) [3]: prevented the increase
CO release in rpmi [2]: decarbonylation in rpmi observed
CO release in rpmi ([2]; listed as 2,2-dimethyl-4-pentenal): even less
CO release in TBHP solution [2]: released CO
CO release in pH 2 (acidic aqueous) solution [2]: very little
CO release in H2O2 solution [2]: No CO release was observed

C[C@@H]1C[C@H]2[C@@H]3CCC4=CC(=O)C=C[C@]4(C)[C@@]3(F)[C@@H](O)C[C@]2(C)[C@@]1(O)C(=O)CO [dexamethasone, reference compound]
Increase in body weight by day 40 ([4]; dexamethasone 0.3 mg/kg daily for 30 days from day 10): 25.7%

CC(C)(C)C1NCCS1 (racemic) [compound 11, 2-tert-butyl-thiazolidine]
CO release [1]: released CO
Rate of CO release [1]: initially very slowly
CO release after 6 hours ([1]; TBHP plus rpmi): 3%
CO release after 24 hours ([1]; TBHP plus rpmi): 25%
CO release after one day ([1]; TBHP plus rpmi): about 25%

CC(C)(C)C=O [compound 1, trimethylacetaldehyde]
Body weight after disease onset [3]: No loss of body weight was observed
Paw circumference (right and left) [3]: prevented the increase
Paw volume (right and left) [3]: prevented the increase
Increase in body weight by day 40 [4, 6]: 38.7%
Increase in body weight by day 40 [4, 7]: 40%
Arthritic score [4]: only slightly influenced
Increase in paw volume compared to vehicle or untreated rats [4]: reduced the increase in paw volume
Dependence of CO release on TBHP concentration ([2]; 0.23 M aldehyde, varying TBHP, up to 32 eq.): increased with the concentration of TBHP until approximately eight equivalents of TBHP was reached
CO release at higher and lower aldehyde concentrations relative to maximum ([2]; 0.25 M and 0.08 M aldehyde in TBHP): decreased approximately to half
Aldehyde concentration giving maximum CO release ([2]; 1.9 M TBHP): around 0.12 M
CO release in rpmi [2]: No CO was detected
CO release at TBHP concentration of inflamed tissues ([2]; TBHP 1 mM): CO release still was observed
CO release in TBHP solution [2]: released CO
Effect of radical trap 2,6-di-tert-butylphenol on CO release in TBHP solution ([2]; TBHP solution plus radical trap): inhibited
Effect of radical trap 2,6-di-tert-butylphenol on CO release in acidic aqueous solution [2]: inhibited
CO release in pH 2 (acidic aqueous) solution [2]: very little
CO release in H2O2 solution [2]: No CO was detected

Cc1ccc(CC(C)(C)C=O)cc1 [compound 6, 2,2-dimethyl-3-(p-methylphenyl)propanal]
CO release in rpmi [2]: decarbonylation in rpmi observed
Effect of radical trap 2,6-di-tert-butylphenol on CO release in acidic aqueous solution [2]: inhibited the decarbonylation process
CO release in pH 2 (acidic aqueous) solution [2]: decarbonylated significantly
Media in which CO release was observed [2]: released CO in all media tested except H2O2 solution

CC(C)(C=O)c1ccccc1 [compound 7, 2-methyl-2-phenylpropionaldehyde]
Increase in body weight by day 40 [4, 6]: 28.6%
Days with significant inhibition of arthritic score relative to vehicle treated rats ([4]; 100 mg/kg): 14 days
Reduction in paw volume compared with dexamethasone ([4]; 100 mg/kg): comparable to that seen in rats treated with dexamethasone
Increase in body weight by day 40 [4, 7]: 31.6%
Arthritic score [4]: only slightly influenced
Increase in paw volume compared to vehicle or untreated rats [4]: reduced the increase in paw volume
Effect of radical trap 2,6-di-tert-butylphenol on CO release in acidic aqueous solution [2]: inhibited the decarbonylation process
CO release in pH 2 (acidic aqueous) solution [2]: decarbonylated significantly
CO release in H2O2 solution [2]: responded significantly to decarbonylation
Media in which CO release was observed [2]: released CO in all media tested except rpmi solution
